For assay [1], the system named is diabetic mice (by alloxan). Briefly: antidiabetic activity in diabetic mice (by alloxan). It counts as in vivo. On the procedure:
Alloxan was used for the induction of diabetes mellitus according to reported procedure. Recently prepared Alloxan (ALX) was injected intraperitoneally to animals, fasting for 16 h, at a single dose of (150 mg/kg). […] Only diabetic animals, having random blood glucose level more than 200 mg/dl, were selected for studies. All the experimental procedure were approved from the ethical committee department of pharmacy, University of Swabi via letter No; UOS-06/2021.
A total of 30 animals were used to determine the hypoglycemic effect of the synthesized derivatives of succinimide. The experimental animals were segregated in six groups […], having five (5) animals in each group. Group I was designated as normal group and was given normal saline I/P only. Group II was given Tween 80, and Group III was given standard drug (glibenclamide) after the induction of diabetes. Group IV, Group V, and Group VI were given the various doses of synthesized compounds, respectively. […]

The test system of a further assay is mice. Briefly: oral glucose tolerance test (OGTT). The following applies: glucose 2 g/kg orally. It counts as in vivo. The procedure: To perform OGTT mice fasted overnight were used including both control and treated mice. Glucose was administered orally at the dose of 2 g/kg against glibenclamide as standard drug. After administration of glucose, blood glucose level was calculated at time intervals of 0, 30, 60, and 120 min for assessment of the impact of exogenously given D-glucose on treated mice. OGTT was carried out 5 days before the completion of the study.
To perform OGTT, mice fasted overnight were used including both control and treated mice. Glucose was administered orally at the dose of 2 g/kg against glibenclamide as a standard drug. After administration of glucose, blood glucose level was calculated at time intervals of 0, 30, 60, and 120 min for assessment of the impact of exogenously given D-glucose on treated mice.

The nature of the next assay: ABTS scavenging activity. In kind it is biochemical. On the procedure: For the determination of the antioxidant activity of the synthesized compounds, the previously reported method for ABTS scavenging activity was used with slight modification. The stock solution of 2.4 mM of potassium per sulfate solution and 7 mM ABTS solution was prepared by mixing them in equal volumes for 16 h. The stock solution thus prepared was diluted using methyl alcohol to give absorption of 0.7 ± 0.02 units when studied at the wavelength of 734 nm using a spectrophotometer. Fresh ABTS solution was prepared for each ABTS scavenging assay. About 150 μL of the ABTS working solution was added to 50 μL of synthesized compounds and kept in darkness for 10 min. […] Methanol was used as blank, and standard ascorbic acid was run at the same time. The absorbance was calculated utilizing a microplate reader at 734 nm.

Another assay is described as follows: DPPH scavenging activity. It counts as biochemical. The procedure:
The antioxidant assay of the synthesized compounds was conducted following the previously reported method. A freshly prepared DPPH solution (50 μL of 1.0 × 10^−3 M) was added in methyl alcohol. Methanol was used as a control in this experiment. The prepared mixture was subjected to incubation at 25°C for 30 min. A decrease in the DPPH free radical concentration was calculated using a spectrophotometer at a wavelength of 517 nm. After incubation ascorbic acid was used as a positive control. The antioxidant activity was determined as a percent (%) of inhibition using the formula given:(1) percent inhibition=absorbancecontrol−absorbancesample/absorbancecontrol×100.

The target in a further assay is α-glucosidase. Briefly: in vitro α-glucosidase inhibition. In kind it is biochemical. On the procedure: For in vitro α-glucosidase activity, samples were prepared by adding glucopyranoside to phosphate buffer solvent, and different concentrations of the synthesized compounds (31.25, 62.5, 125, 250, and 500 µg/ml), respectively, were added to this solution and then the enzyme glucosidase in distilled water (0.5 µg/ml) was also added to the above mixture. The reaction mixture thus prepared was subjected to incubation at 37°C for 20 minutes. The reaction was halted by adding HCl after incubation of the mixture. The intensity of the color was determined at 540 nm by spectrophotometer, and the formula given below was used for the determination of percent inhibition:(2) percent inhibition=absorbancecontrol−absorbancesample/absorbancecontrol×100.

The target in a further assay is α-amylase. Briefly: in vitro α-amylase inhibition. It counts as biochemical. The procedure: The starch solution was added, following incubation of the mixture, and the reaction mixture thus prepared was kept in water bath at 100°C for some time. Microplate reader measured the intensity of the color at 656 nm. Following formula was used to determine percentage inhibition:(3) percent inhibition=absorbancecontrol−absorbancesample/absorbancecontrol×100.

Structures are written as SMILES. Converted amounts (≈) assume the structure as drawn.

Consider `COc1ccc(Cl)cc1C(=O)NCCc1ccc(S(=O)(=O)NC(=O)NC2CCCCC2)cc1` [Glibenclamide, reference compound], for which, in assay [1] (dose 0.5 (μg/kg)), the “Change in body weight” value was “+10.3 Gm”; the “Decrease in blood glucose after 15 days” value is 275 mg/dL; the “Blood glucose level, 0 day” value is 473 mg/dL; the “Blood glucose level, 4th day” value came to 303 mg/dL. Besides, in assay [1] (dose 0.5 (μg/kg)), the “Blood glucose level, 7th day” value was determined as 257 mg/dL; the “Blood glucose level, 10th day” value is 212 mg/dL; the “Blood glucose level, 15th day” value turned out to be 198 mg/dL. In the assay with mice, the “OGTT blood glucose, 0 minutes” value was 151.5 mg/dL; the “OGTT blood glucose, 30 minutes” value is 176.7 mg/dL; the “OGTT blood glucose, 60 minutes” value worked out at 214.3 mg/dL; the “OGTT blood glucose, 120 minutes” value stood at 140.5 mg/dL.

With `O=C1O[C@H]([C@@H](O)CO)C(O)=C1O` [Ascorbic acid, reference compound], the “IC50 (ABTS)” value in “ABTS scavenging activity” worked out at 6.84 µg/mL (≈ 38.8 µM). The “(%) ABTS inhibitions” value in the assay “ABTS scavenging activity” (31.25 µg/ml) came out at 63.89 ± 0.20%; in the assay “ABTS scavenging activity” (62.50 µg/ml), 75.45 ± 0.90%; in “ABTS scavenging activity” (125 µg/ml), 77.61 ± 0.43%; in the assay “ABTS scavenging activity” (250 µg/ml), 82.40 ± 0.20%; in the assay “ABTS scavenging activity” (500 µg/ml), 87.08 ± 0.47%. Further, in the assay “DPPH scavenging activity”, the “IC50 (DPPH)” value stood at 7.10 µg/mL (≈ 40.3 µM). In addition, the “(%) DPPH inhibitions” value in the assay “DPPH scavenging activity” (31.25 µg/ml) came to 68.42 ± 0.43%; in the assay “DPPH scavenging activity” (62.50 µg/ml) it was 73.22 ± 1.28%; in the assay “DPPH scavenging activity” (125 µg/ml), 79.52 ± 0.66%; in the assay “DPPH scavenging activity” (250 µg/ml), 84.56 ± 0.45%; in “DPPH scavenging activity” (500 µg/ml), 90.65 ± 1.32%.

For `O=C1CCCCC1C1CC(=O)N(Cc2ccccc2)C1=O` (stereo not drawn) [BW2, Benzyl-3-(2-Oxocyclohexyl) Pyrrolidine-2,5-Dione], in “ABTS scavenging activity”, the “IC50 (ABTS)” value was determined as 12.87 µg/mL (≈ 45.1 µM). Moreover, the “(%) ABTS inhibitions” value is on record as 57.40 ± 0.76^∗∗∗ % in the assay “ABTS scavenging activity” (31.25 µg/ml); 61.35 ± 0.51^∗∗∗ % in the assay “ABTS scavenging activity” (62.50 µg/ml); 66.90 ± 0.96^∗∗∗ % in “ABTS scavenging activity” (125 µg/ml); 71.08 ± 0.47^∗∗∗ % in the assay “ABTS scavenging activity” (250 µg/ml); 76.85 ± 2.24^∗∗∗ % in “ABTS scavenging activity” (500 µg/ml). Further, in the assay “DPPH scavenging activity”, the “IC50 (DPPH)” value was found to be 12.81 µg/mL (≈ 44.9 µM). In addition, the “(%) DPPH inhibitions” value in the assay “DPPH scavenging activity” (31.25 µg/ml) was 56.65 ± 1.34^∗∗∗ %; in the assay “DPPH scavenging activity” (62.50 µg/ml), 61.58 ± 1.12^∗∗∗ %; in the assay “DPPH scavenging activity” (125 µg/ml) it was 66.40 ± 0.25^∗∗∗ %; in the assay “DPPH scavenging activity” (250 µg/ml) it was 71.67 ± 1.20^∗∗∗ %; in “DPPH scavenging activity” (500 µg/ml), 75.09 ± 0.32^∗∗∗ %. Moreover, at α-glucosidase, the “IC50 (α-glucosidase)” value was determined as 10.81 µg/mL (≈ 37.9 µM). In addition, the “% inhibitions (α-glucosidase)” value was 62.44 ± 0.55^∗∗ % in the assay with α-glucosidase (31.25 µg/ml); 68.47 ± 0.52^∗∗∗ % with α-glucosidase (62.50 µg/ml); 74.39 ± 0.49^∗∗∗ % in the assay with α-glucosidase (125 µg/ml); 81.34 ± 0.55^∗ % in the assay on α-glucosidase (250 µg/ml); 87.36 ± 0.49^∗ % in the assay on α-glucosidase (500 µg/ml). Moreover, the “IC50 (α-amylase)” value on α-amylase came out at 15.34 µg/mL (≈ 53.8 µM). In addition, the “% inhibitions (α-amylase)” value with α-amylase (31.25 µg/ml) was 55.85 ± 0.17^∗∗∗ %; in the assay with α-amylase (62.50 µg/ml), 63.72 ± 0.11^∗∗∗ %; in the assay with α-amylase (125 µg/ml), 67.44 ± 0.15^∗∗∗ %; with α-amylase (250 µg/ml), 73.14 ± 0.49^∗∗∗ %; in the assay on α-amylase (500 µg/ml), 78.69 ± 0.14^∗∗∗ %. Also, the “Change in body weight” value in assay [1] (dose 31.25 μg/kg) was −6.8 Gm; in assay [1] (dose 62.5 μg/kg), −4.6 Gm; in assay [1] (dose 125 μg/kg), −3.7 Gm; in assay [1] (dose 250 μg/kg), “+3.4 Gm”; in assay [1] (dose 500 μg/kg) it was “+7.4 Gm”. For the same compound, the “Decrease in blood glucose after 15 days” value in assay [1] (dose 31.25 μg/kg) was found to be 35 mg/dL; in assay [1] (dose 62.5 μg/kg), 58 mg/dL; in assay [1] (dose 125 μg/kg) it was 68 mg/dL; in assay [1] (dose 250 μg/kg), 111 mg/dL; in assay [1] (dose 500 μg/kg) it was 199 mg/dL. In addition, the “Blood glucose level, 0 day” value worked out at 452 mg/dL in assay [1] (dose 31.25 μg/kg); 386 mg/dL in assay [1] (dose 62.5 μg/kg); 437 mg/dL in assay [1] (dose 125 μg/kg); 466 mg/dL in assay [1] (dose 250 μg/kg); 456 mg/dL in assay [1] (dose 500 μg/kg). Further, the “Blood glucose level, 4th day” value in assay [1] (dose 31.25 μg/kg) was found to be 448 mg/dL; in assay [1] (dose 62.5 μg/kg) it was 359 mg/dL; in assay [1] (dose 125 μg/kg), 431 mg/dL; in assay [1] (dose 250 μg/kg) it was 461 mg/dL; in assay [1] (dose 500 μg/kg), 402 mg/dL. Further, the “Blood glucose level, 7th day” value in assay [1] (dose 31.25 μg/kg) is 431 mg/dL; in assay [1] (dose 62.5 μg/kg), 349 mg/dL; in assay [1] (dose 125 μg/kg), 422 mg/dL; in assay [1] (dose 250 μg/kg), 443 mg/dL; in assay [1] (dose 500 μg/kg), 361 mg/dL. Also, the “Blood glucose level, 10th day” value is 425 mg/dL in assay [1] (dose 31.25 μg/kg); 336 mg/dL in assay [1] (dose 62.5 μg/kg); 394 mg/dL in assay [1] (dose 125 μg/kg); 407 mg/dL in assay [1] (dose 250 μg/kg); 303 mg/dL in assay [1] (dose 500 μg/kg). Further, the “Blood glucose level, 15th day” value in assay [1] (dose 31.25 μg/kg) came to 417 mg/dL; in assay [1] (dose 62.5 μg/kg), 328 mg/dL; in assay [1] (dose 125 μg/kg) it was 369 mg/dL; in assay [1] (dose 250 μg/kg), 355 mg/dL; in assay [1] (dose 500 μg/kg), 257 mg/dL. The “OGTT blood glucose, 0 minutes” value with mice worked out at 163.7 mg/dL. Further, the “OGTT blood glucose, 30 minutes” value in the assay on mice came to 189.2 mg/dL. The “OGTT blood glucose, 60 minutes” value with mice came out at 214.8 mg/dL. Further, the “OGTT blood glucose, 120 minutes” value in the assay with mice came out at 151.4 mg/dL.

For `C[C@H]1O[C@H](O[C@H]2[C@H](O)[C@@H](O)[C@@H](O[C@H]3[C@H](O)[C@@H](O)C(O)O[C@@H]3CO)O[C@@H]2CO)[C@H](O)[C@@H](O)[C@@H]1N[C@H]1C=C(CO)[C@@H](O)[C@H](O)[C@H]1O` (stereo partly drawn) [Acarbose, reference compound], the “% inhibitions (α-glucosidase)” value in the assay with α-glucosidase (31.25 µg/ml) is given as 67.90 ± 0.45%; in the assay on α-glucosidase (62.50 µg/ml) it was 73.00 ± 0.30%; in the assay on α-glucosidase (125 µg/ml) it was 80.90 ± 0.60%; with α-glucosidase (250 µg/ml), 86.45 ± 0.90%; in the assay on α-glucosidase (500 µg/ml), 92.23 ± 0.22%. For the same compound, the “% inhibitions (α-amylase)” value in the assay with α-amylase (31.25 µg/ml) is recorded as 63.62 ± 0.58%; with α-amylase (62.50 µg/ml), 69.42 ± 1.55%; with α-amylase (125 µg/ml), 76.20 ± 0.49%; in the assay with α-amylase (250 µg/ml), 82.47 ± 0.71%; with α-amylase (500 µg/ml), 87.75 ± 0.42%.

Values taken from PMC8979682, “Synthesis, Antioxidant, and Antidiabetic Activities of Ketone Derivatives of Succinimide” (Evidence-based Complementary and Alternative Medicine : eCAM, 2022).
